Activity calls are given as the source filed them. No cut-off for these calls is given here.
Key:
MDA-MB-231 [1] = experiment: Growth inhibition of human MDA-MB-231 cells at 10 uM incubated for 72 hrs by cell counter analysis relative to control; format: functional; conditions: read-out: GI
EKVX = experiment: Antiproliferative activity against human EKVX cells assessed as cell growth at 10 uM incubated for 48 hrs by sulforhodamine B assay relative to control; format: functional; conditions: read-out: Activity
[2] = Growth inhibition of human MCF-10A cells at 10 uM incubated for 72 hrs by cell counter analysis relative to control; format: toxicity, cell-based; conditions: read-out: GI
CAKI-1 = experiment: Antiproliferative activity against human CAKI-1 cells assessed as cell growth at 10 uM incubated for 48 hrs by sulforhodamine B assay relative to control; format: functional; conditions: read-out: Activity
PC-3 = experiment: Antiproliferative activity against human PC-3 cells assessed as cell growth at 10 uM incubated for 48 hrs by sulforhodamine B assay relative to control; format: functional; conditions: read-out: Activity
MCF7 [3] = experiment: Growth inhibition of human MCF7 cells at 25 uM incubated for 24 hrs by cell counter analysis relative to control; format: functional; conditions: read-out: GI
MCF7 [4] = experiment: Growth inhibition of human MCF7 cells at 10 uM incubated for 72 hrs by cell counter analysis relative to control; format: functional; conditions: read-out: GI
UO-31 = experiment: Antiproliferative activity against human UO-31 cells assessed as cell growth at 10 uM incubated for 48 hrs by sulforhodamine B assay relative to control; format: functional; conditions: read-out: Activity
MDA-MB-231 [5] = experiment: Antiproliferative activity against human MDA-MB-231 cells assessed as cell growth at 10 uM incubated for 48 hrs by sulforhodamine B assay relative to control; format: functional; conditions: read-out: Activity
A549 = experiment: Antiproliferative activity against human A549 cells assessed as cell growth at 10 uM incubated for 48 hrs by sulforhodamine B assay relative to control; format: functional; conditions: read-out: Activity
[6] = Growth inhibition of human MCF-10A cells at 10 uM incubated for 24 hrs by cell counter analysis relative to control; format: toxicity, cell-based; conditions: read-out: GI
MCF7 [7] = experiment: Antiproliferative activity against human MCF7 cells assessed as cell growth at 10 uM incubated for 48 hrs by sulforhodamine B assay relative to control; format: functional; conditions: read-out: Activity
MCF7 [8] = experiment: Induction of cell cycle arrest in human MCF7 cells assessed as decrease in accumulation of cells at G0/G1 phase incubated for 72 hrs by propidium iodide staining based flow cytometry analysis; format: functional
MCF7 [9] = experiment: Inhibition of colony formation in human MCF7 cells incubated for 72 hrs by crystal violet staining assay; format: functional, cell-based
SR = experiment: Antiproliferative activity against human SR cells assessed as cell growth at 10 uM incubated for 48 hrs by sulforhodamine B assay relative to control; format: functional; conditions: read-out: Activity
HCT-116 = experiment: Antiproliferative activity against human HCT-116 cells assessed as cell growth at 10 uM incubated for 48 hrs by sulforhodamine B assay relative to control; format: functional; conditions: read-out: Activity
HCT-15 = experiment: Antiproliferative activity against human HCT-15 cells assessed as cell growth at 10 uM incubated for 48 hrs by sulforhodamine B assay relative to control; format: functional; conditions: read-out: Activity
RPMI-8226 = experiment: Antiproliferative activity against human RPMI-8226 cells assessed as cell growth at 10 uM incubated for 48 hrs by sulforhodamine B assay relative to control; format: functional; conditions: read-out: Activity
[10] = Growth inhibition of human MCF-10A cells at 25 uM incubated for 24 to 48 hrs by cell counter analysis relative to control; format: toxicity, cell-based; conditions: time 24-48 hrs, read-out: GI
[11] = Growth inhibition of human MCF-10A cells at 50 uM incubated for 24 to 48 hrs by cell counter analysis relative to control; format: toxicity, cell-based; conditions: time 24-48 hrs, read-out: GI
MCF7 [12] = experiment: Growth inhibition of human MCF7 cells at 50 uM incubated for 24 hrs by cell counter analysis relative to control; format: functional; conditions: read-out: GI
MCF7 [13] = experiment: Induction of cell cycle arrest in human MCF7 cells assessed as increase in accumulation of cells at S phase at 25 uM incubated for 72 hrs by propidium iodide staining based flow cytometry analysis; format: functional
ACHN = experiment: Antiproliferative activity against human ACHN cells assessed as cell growth at 10 uM incubated for 48 hrs by sulforhodamine B assay relative to control; format: functional; conditions: read-out: Activity
SNB-75 = experiment: Antiproliferative activity against human SNB-75 cells assessed as cell growth at 10 uM incubated for 48 hrs by sulforhodamine B assay relative to control; format: functional; conditions: read-out: Activity
MDA-MB-435 = experiment: Antiproliferative activity against human MDA-MB-435 cells assessed as cell growth at 10 uM incubated for 48 hrs by sulforhodamine B assay relative to control; format: functional; conditions: read-out: Activity

CC(=O)c1c(C)[nH]c2c1c(-c1ccc3c(c1)OCO3)nc1ccccc12
inhibition of growth at 10 µM (MDA-MB-231 [1]): 28% | growth at 10 µM (EKVX): 88.3% | inhibition at 72 h, 10 µM [2]: 11% | growth at 10 µM (CAKI-1): 58.9% | growth at 10 µM (PC-3): 75.8% | inhibition of growth at 25 µM (MCF7 [3]): 38% | inhibition of growth at 10 µM (MCF7 [4]): 25% | growth at 10 µM (UO-31): 26.4% | growth at 10 µM (MDA-MB-231 [5]): 82.2% | growth at 10 µM (A549): 81.7% | inhibition at 24 h, 10 µM [6]: 14% | growth at 10 µM (MCF7 [7]): 41.5% | Activity (MCF7 [8]): Dose-Dependent Effect | inhibition (MCF7 [9]): Dose-Dependent Effect | growth at 10 µM (SR): 31.6% | growth at 10 µM (HCT-116): 84.3% | growth at 10 µM (HCT-15): 69.5% | growth at 10 µM (RPMI-8226): 90.3% | inhibition at 25 µM [10]: 42% | inhibition at 50 µM [11]: 63% | inhibition of growth at 50 µM (MCF7 [12]): 54% | Activity (MCF7 [13]): Active | growth at 10 µM (ACHN): 92.4% | growth at 10 µM (SNB-75): 46.5% | growth at 10 µM (MDA-MB-435): 42.1%

Source: ChEMBL document CHEMBL5620394, “Synthesis of new antiproliferative 1,3,4-substituted-pyrrolo[3,2-c]quinoline derivatives, biological and in silico insights” (Eur J Med Chem, 2023)
